# Experimental data as given in patent US9029389B2 (Institut Pasteur Korea, priority 2011, dated 2015).
# Molecular target: T1, Human 5-lipoxygenase (Homo sapiens, UniProt P09917)
# T1 construct: purchased Cayman 60402; host or cells: insect cells
# T1 sequence (P09917 1-674): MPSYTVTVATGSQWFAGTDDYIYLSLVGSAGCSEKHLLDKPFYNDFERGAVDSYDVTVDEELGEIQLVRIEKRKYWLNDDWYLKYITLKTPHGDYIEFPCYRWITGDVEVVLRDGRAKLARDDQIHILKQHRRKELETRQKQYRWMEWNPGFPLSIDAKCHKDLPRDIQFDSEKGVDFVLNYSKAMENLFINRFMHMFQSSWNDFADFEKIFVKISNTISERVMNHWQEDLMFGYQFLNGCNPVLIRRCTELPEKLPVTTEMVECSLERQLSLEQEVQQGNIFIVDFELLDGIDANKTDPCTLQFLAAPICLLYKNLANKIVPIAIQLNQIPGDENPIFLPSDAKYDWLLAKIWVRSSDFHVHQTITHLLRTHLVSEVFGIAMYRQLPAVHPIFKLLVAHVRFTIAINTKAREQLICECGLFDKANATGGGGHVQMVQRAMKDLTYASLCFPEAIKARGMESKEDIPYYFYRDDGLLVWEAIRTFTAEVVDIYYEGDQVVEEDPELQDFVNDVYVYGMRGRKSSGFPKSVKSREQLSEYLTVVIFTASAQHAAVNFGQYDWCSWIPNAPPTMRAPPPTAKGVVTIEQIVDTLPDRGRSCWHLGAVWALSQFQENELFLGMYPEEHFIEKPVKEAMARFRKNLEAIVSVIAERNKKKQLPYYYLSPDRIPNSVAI
# Test: Activity of compounds against 5-LO enzyme (LTB4 measurement and/or fluorescence method)
# Assay type: biochemical
# Details: 5-LO, single concentration of 10 uM in duplicate
# Experimental: The activity of compounds against 5-LO were determined by measuring LTB4 (leukotriene B4) levels and/or by a fluorescence method. Both approaches are outlined in more detail below;
# Human 5-lipoxygenase (Cayman, Cat#60402) produced in insect cells was pre-incubated with compound for 15 min at RT in incubation buffer (50 mM Tris-Cl, pH 7.4, 2 mM CaCl2, 0.1 mM ATP, 1% DMSO). The enzymatic reaction was started by adding arachidonic acid to a final concentration of 3 uM. After 5 min of incubation at 37° C., the reaction was stopped by heatinactivation at 80° C. for 5 min. LTB4 levels were quantified by using LTB4 EIA kit (Cayman, Cat#520111) as instructed and/or LTB4 levelswere measured with LC/MS/MS using Quattro Premier™ XE tandem quadrupole mass spectrometer equipped with Acquity UPLC system (Waters, Milford, Mass.). The method was slightly modified as reported previously (Zweifel et al., 2008, Willey et al., 2008, Chappell et al, 2011). Briefly, chromatographic separation was carried out with Acquity UPLC BEH Shield RP18 Column (2.1 mm×50 mm, 1.7 μm particle size, Waters, Milford, Mass.). Sample injection volume was 10 μl, the column temperature was 35° C., the mobile phase A consisted of water with 0.1% formic acid and the mobile phase B consisted of acetonitrile with 0.1% formic acid. Flow rate was 0.4 mL/min and the gradient condition was as follows.
# Relative quantification of LTB4 and LTB4-d4 (Internal Standard) was done using multi reaction monitoring (MRM) of the transitions of m/z 335→195 for LTB4, 339→197 for LTB4-d4 in electrospray ionization (ESI) negative mode. Desolvation temperature was 400° C., source temperature was 130° C. Capillary voltage, cone voltage, and collision voltage were 3.5 kV, 30V, and 20 eV, respectively. Nitrogen was used for desolvation (750 L/h) and cone (50 L/h) gas. Argon was used for collision gas (0.22 ml/min). The dwell time was 10 ms.
# Besides the two methods quantifying LTB4 level, a fluorescence assay measuring 5-HpETE was introduced for high-throughput screening in a 384 well microplate format (Pufahl et al., 2007). For nonspecific ester cleavage of the acetate groups in H2DCFDA, the insect cell lysate expressing human 5-LO (Cayman Cat#60402) was incubated with H2DCFDA (50 mM Tris-Cl, pH 7.5, 2 mM CaCl2, 20 uM H2DCFDA, 500 mU 5-LO per reaction) for 5 minutes. Compound and enzyme mixture were pre-incubated for 5 minutes, and the enzymatic reaction was initiated by addition of ATP and arachidonic acid to a final concentration of 100 uM and 3 uM, respectively. After 5 minutes of incubation, the fluorescence was measured using Spectramax M5 (Molecular Device, Ex/Em=485 nm/530 nm). All steps were carried out at room temperature.
# A total of 378 compounds were initially tested at a single concentration of 10 uM in duplicate with the results summarized in Table 1. From these 378 compounds, 53 compounds plus an additional 25 were selected for confirmation of activity by 6 or 11 point dose response in duplicate with the corresponding IC50 values outlined in Table 2.
row,Compound,inhibition at 10 µM [%]
1,"Cc1nc2c(C(F)(F)F)cccn2c1C(=O)NCc1ccccc1 [compound 36, N-Benzyl-2-methyl-8-(trifluoromethyl)imidazo[1,2-a]pyridine-3-carboxamide]",< 40
2,"CCCc1nc2ccccn2c1C(=O)NCc1ccccc1 [compound 37, N-Benzyl-2-propylimidazo[1,2-a]pyridine-3-carboxamide]",< 40
3,"O=C(NCc1ccccc1)c1c(C2CC2)nc2ccccn12 [compound 38, N-Benzyl-2-cyclopropylimidazo[1,2-a]pyridine-3-carboxamide]",< 40
4,"Cc1nc2ccc(-c3ccccc3)cn2c1C(=O)NCc1ccccc1 [compound 39, N-Benzyl-2-methyl-6-phenylimidazo[1,2-a]pyridine-3-carboxamide]",< 40
5,"Cc1nc2ccc(F)cn2c1C(=O)NCc1ccccc1 [compound 40, N-Benzyl-6-fluoro-2-methylimidazo[1,2-a]pyridine-3-carboxamide]",< 40
6,"Cc1nc2ccccn2c1NC(=O)Cc1ccccc1 [compound 41, N-(2-Methylimidazo[1,2-a]pyridin-3-yl)-2-phenylacetamide]",< 40
7,"Cc1nc2cc(C#N)ccn2c1C(=O)NCc1ccccc1 [compound 42, N-Benzyl-7-cyano-2-methylimidazo[1,2-a]pyridine-3-carboxamide]",< 40
8,"Cc1nc2ccc(Cl)cn2c1C(=O)NCc1ccc(-c2ccccc2)cc1 [compound 43, N-(Biphenyl-4-ylmethyl)-6-chloro-2-methylimidazo[1,2-a]pyridine-3-carboxamide]",< 40
9,"Cc1nc2cc(Cl)ccn2c1C(=O)NCc1ccc(-c2ccccc2)cc1 [compound 44, N-(Biphenyl-4-ylmethyl)-7-chloro-2-methylimidazo[2-a]pyridine-3-carboxamide]",< 40
10,"CCc1nc2ccccn2c1C(=O)NCc1ccc(Oc2ccccc2)cc1 [compound 45, 2-Ethyl-N-(4-phenoxybenzyl)imidazo[1,2-a]pyridine-3-carboxamide]",< 40
11,"CCCc1nc2ccccn2c1C(=O)NCc1ccc(-c2ccccc2)cc1 [compound 46, N-(Biphenyl-4-ylmethyl)-2-propylimidazo[1,2-a]pyridine-3-carboxamide]",40 to 69
12,"Cc1nc2c(C#N)cccn2c1C(=O)NCc1ccccc1 [compound 47, N-Benzyl-8-cyano-2-methylimidazo[1,2-a]pyridine-3-carboxamide]",< 40
13,"Cc1nc2c(O)cccn2c1C(=O)NCc1ccccc1 [compound 48, N-Benzyl-8-hydroxy-2-methylimidazo[1,2-a]pyridine-3-carboxamide]",< 40
14,"CCc1nc2ccccn2c1C(=O)NCc1ccc(C(C)(C)C)cc1 [compound 49, N-(4-tert-Butylbenzyl)-2-ethylimidazo[1,2-a]pyridine-3-carboxamide]",< 40
15,"CCc1nc2ccccn2c1C(=O)NCc1ccc2c(ccn2C)c1 [compound 50, 2-Ethyl-N-((1-methyl-1H-indol-5-yl)methyl)imidazo[1,2-a]pyridine-3-carboxamide]",< 40
16,"CCc1nc2ccccn2c1C(=O)NCc1ccc(OC(F)(F)F)cc1 [compound 51, 2-Ethyl-N-(4-(trifluoromethoxy)benzyl)imidazo[1,2-a]pyridine-3-carboxamide]",< 40
17,"CCc1nc2ccccn2c1C(=O)NCc1ccc(OC(C)C)cc1 [compound 53, 2-Ethyl-N-(4-isopropoxybenzyl)imidazo[1,2-a]pyridine-3-carboxamide]",< 40
18,"CCc1nc2ccccn2c1C(=O)NCc1ccc(OCC(C)C)cc1 [compound 54, 2-Ethyl-N-(4-isobutoxybenzyl)imidazo[1,2-a]pyridine-3-carboxamide]",< 40

row,Compound,inhibition at 10 µM [%]
1,CCc1nc2ccc(Cl)cn2c1C(=O)NCc1ccc(OC(F)(F)F)cc1 [compound 55],40 to 69
2,"CCc1nc2cc(Cl)ccn2c1C(=O)NCc1ccc(-c2ccc(F)cc2)cc1 [compound 56, 7-Chloro-2-ethyl-N-((4′-fluorobiphenyl-4-yl)methyl)imidazo[1,2-a]pyridine-3-carboxamide]",< 40
3,"CCc1nc2ccc(C)cn2c1C(=O)NCc1ccc(-c2ccccc2)cc1 [compound 57, N-(Biphenyl-4-ylmethyl)-2-ethyl-6-methylimidazo[1,2-a]pyridine-3-carboxamide]",40 to 69
4,"CCc1nc2ccc(C)cn2c1C(=O)NCc1ccc(Oc2ccccc2)cc1 [compound 58, 2-Ethyl-6-methyl-N-(4-phenoxybenzyl)imidazo[1,2-a]pyridine-3-carboxamide]",> 69
5,"CCc1nc2ccc(C)cn2c1C(=O)NCc1ccc(OC(F)(F)F)cc1 [compound 59, 2-Ethyl-6-methyl-N-(4-(trifluoromethoxy)benzyl)imidazo[1,2-a]pyridine-3-carboxamide]",40 to 69
6,"CCc1nc2ccc(C)cn2c1C(=O)NCc1ccc2ccn(C)c2c1 [compound 60, 2-Ethyl-6-methyl-N-((1-methyl-1H-indol-6-yl)methyl)imidazo[1,2-a]pyridine-3-carboxamide]",40 to 69
7,CCc1nc2ccc(Cl)cn2c1C(=O)NCc1ccc(Oc2ccccc2)cc1 [compound 62],< 40
8,CCc1nc2ccc(Cl)cn2c1C(=O)NCc1ccc(C(C)(C)C)cc1 [compound 63],40 to 69
9,CCc1nc2ccc(Cl)cn2c1C(=O)NCc1ccc(N2CCOCC2)cc1 [compound 64],< 40
10,CCc1nc2ccc(Cl)cn2c1C(=O)NCc1ccc(OC(C)C)cc1 [compound 65],< 40
11,CCc1nc2ccc(Cl)cn2c1C(=O)NCc1ccc(OCC(C)C)cc1 [compound 66],< 40
12,CCc1nc2ccc(Cl)cn2c1C(=O)NCc1ccc2c(ccn2C)c1 [compound 67],< 40
13,CCc1nc2ccc(Cl)cn2c1C(=O)NCc1ccc2ccn(C)c2c1 [compound 68],< 40
14,"CCc1nc2ccc([N+](=O)[O-])cn2c1C(=O)NCc1ccc(OC(F)(F)F)cc1 [compound 69, 2-Ethyl-6-nitro-N-(4-(trifluoromethoxy)benzyl)imidazo[1,2-a]pyridine-3-carboxamide]",40 to 69
15,"CCc1nc2cnccn2c1C(=O)NCc1ccc(-c2ccc(Cl)cc2)cc1 [compound 71, N-((4′-Chlorobiphenyl-4-yl)methyl)-2-ethylimidazo[1,2-a]pyrazine-3-carboxamide]",< 40
16,"CCc1nc2ccc(Cl)cn2c1C(=O)NCc1ccc(-c2ccccc2Cl)cc1 [compound 72, 6-Chloro-N-((2′-chlorobiphenyl-4-yl)methyl)-2-ethylimidazo[1,2-a]pyridine-3-carboxamide]",40 to 69
17,"CCc1nc2ccc(Cl)cn2c1C(=O)NCc1ccc(-c2ccc(Cl)cc2)cc1 [compound 73, 6-Chloro-N-((4′-chlorobiphenyl-4-yl)methyl)-2-ethylimidazo[1,2-a]pyridine-3-carboxamide]",< 40

# Same assay, conditions: 6 or 11 point dose response in duplicate
row,Compound,IC50 [µM]
1,CCc1nc2ccc(Cl)cn2c1C(=O)NCc1ccc(OC(F)(F)F)cc1 [compound 55],1 to 20
2,"CCc1nc2ccc(C)cn2c1C(=O)NCc1ccc(Oc2ccccc2)cc1 [compound 58, 2-Ethyl-6-methyl-N-(4-phenoxybenzyl)imidazo[1,2-a]pyridine-3-carboxamide]",1 to 20
